Data as given in paper PMC12184311 (2025).

Tests used:
[1] = system: 3WJ (DNA, junction) CGGAACGGCACTCG/CGAGTGCAGCGTGG/CCACGCTCGTTCCG; test: PAGE; conditions: Na+ 50 mM (NaCl), 1X TB, 37 °C 1 h incubation
[2] = system: 4WJ-18 (DNA, junction) GCTAGCTGATACGCTACG/CGTAGCGTACGTTGGTGC/GCACCAACGCGTCACTCC/GGAGTGACGTCAGCTAGC; test: PAGE; conditions: Na+ 50 mM (NaCl); 1X TB, 37 °C 1 h incubation; 0.25 to 5 equiv; compound induces junction assembly
[3] = system: 4WJ-22 (DNA, junction) GCCTAGCATGATACTGCTACCG/CGGTAGCAGTACCGTTGGTGGC/GCCACCAACGGCGTCAACTGCC/GGCAGTTGACGTCATGCTAGGC; test: PAGE gel shift; conditions: Na+ 50 mM (NaCl); 1X TB
[4] = system: FAM-labelled 4WJ-18 (DNA, junction) GCTAGCTGATACGCTACG/CGTAGCGTACGTTGGTGC/GCACCAACGCGTCACTCC/GGAGTGACGTCAGCTAGC; test: PAGE competition, FAM fluorescence; conditions: Na+ 50 mM (NaCl); 1X TB, 37 °C 1 h; 1 equivalent Pt-BIMA; competitor unlabelled 4WJ-18, Y fork, dsDNA, 3WJ

Structure (SMILES)	binding ([1]; 0.25 to 5 equiv)	binding [2]	binding [3]	binding [4]	binding ([1]; control lane)
[Pd+2].[Pd+2].c1ccc2c(c1)ncn2Cc1c2ccccc2c(Cn2cnc3ccccc32)c2ccccc12.c1ccc2c(c1)ncn2Cc1c2ccccc2c(Cn2cnc3ccccc32)c2ccccc12.c1ccc2c(c1)ncn2Cc1c2ccccc2c(Cn2cnc3ccccc32)c2ccccc12.c1ccc2c(c1)ncn2Cc1c2ccccc2c(Cn2cnc3ccccc32)c2ccccc12	yes	yes	–	–	–
[Pt+2].[Pt+2].c1ccc2c(c1)ncn2Cc1c2ccccc2c(Cn2cnc3ccccc32)c2ccccc12.c1ccc2c(c1)ncn2Cc1c2ccccc2c(Cn2cnc3ccccc32)c2ccccc12.c1ccc2c(c1)ncn2Cc1c2ccccc2c(Cn2cnc3ccccc32)c2ccccc12.c1ccc2c(c1)ncn2Cc1c2ccccc2c(Cn2cnc3ccccc32)c2ccccc12	yes	yes	yes	yes	–
C(=Nc1ccc(Cc2ccc(N=Cc3ccccn3)cc2)cc1)c1ccccn1.C(=Nc1ccc(Cc2ccc(N=Cc3ccccn3)cc2)cc1)c1ccccn1.C(=Nc1ccc(Cc2ccc(N=Cc3ccccn3)cc2)cc1)c1ccccn1.[Ni+2].[Ni+2]	–	–	–	–	yes
